In BindingDB's records for doi:10.1016/j.bmcl.2016.07.066 (Presidio Pharmaceuticals, 2016):

Experiments:
[1] = Inhibition of HCV genotype 1a replicons NS5A infected in human Huh7 cells by luciferase reporter gene assay
[2] = Inhibition of HCV genotype 1b replicons NS5A infected in human Huh7 cells by luciferase reporter gene assay
[3] = Inhibition of HCV genotype 3a replicons NS5A infected in human Huh7 cells by luciferase reporter gene assay
[4] = Inhibition of HCV genotype 3a replicon NS5A
[5] = Inhibition of HCV genotype 1a replicon NS5A S2204I mutant infected in human Huh7 cells
[6] = Inhibition of HCV genotype 1b replicon NS5A S2204I mutant infected in human Huh7 cells

Compound: COC(=O)N[C@H](NC(=O)N1CCC[C@H]1c1nc2ccc(-c3ccc4cc(-c5cnc([C@@H]6CCCN6C(=O)[C@@H](NC(=O)OC)[C@@H](C)OC)[nH]5)ccc4c3)cc2[nH]1)[C@@H](C)OC
- EC50 [1]: 0.13 nM
- EC50 [2]: 0.047 nM
- EC50 [3]: 1.5 nM

Compound: COC(=O)N[C@H](NC(=O)N1CCC[C@H]1c1nc2ncc(-c3ccc4cc(-c5cnc([C@@H]6CCCN6C(=O)[C@@H](NC(=O)OC)C(C)C)[nH]5)ccc4c3)cc2[nH]1)C(C)C
- EC50 [1]: 0.23 nM
- EC50 [2]: 0.026 nM
- EC50 [3]: 6.6 nM

Compound: COC(=O)N[C@H](NC(=O)N1CCC[C@H]1c1nc2cnc(-c3ccc4cc(-c5cnc([C@@H]6CCCN6C(=O)[C@@H](NC(=O)OC)C(C)C)[nH]5)ccc4c3)cc2[nH]1)C(C)C
- EC50 [1]: 1.2 nM
- EC50 [2]: 0.052 nM
- EC50 [3]: 15 nM

Compound: CC[C@H](C)[C@H](NC(=O)OC)NC(=O)N1CCC[C@H]1c1nc2ccc(-c3ccc4cc(-c5cnc([C@@H]6CCCN6C(=O)[C@@H](NC(=O)OC)[C@@H](C)OC)[nH]5)ccc4c3)cc2[nH]1
- EC50 [1]: 0.07 nM
- EC50 [2]: 0.015 nM
- EC50 [3]: 1 nM

Compound: COC(=O)N[C@H](NC(=O)N1CCC[C@H]1c1nc2ccc(-c3ccc4cc(-c5cnc([C@@H]6CCCN6C(=O)[C@@H](NC(=O)OC)C6CCOCC6)[nH]5)ccc4c3)cc2[nH]1)C(C)C
- EC50 [1]: 0.08 nM
- EC50 [2]: 0.03 nM
- EC50 [3]: 0.89 nM

Compound: COC(=O)N[C@H](NC(=O)N1CCC[C@H]1c1nc2ccc(-c3ccc4cc(-c5cnc([C@@H]6CCCN6C(=O)[C@@H](NC(=O)OC)C(C)C)[nH]5)ccc4c3)nc2[nH]1)C(C)C
- EC50 [1]: 0.08 nM
- EC50 [2]: 0.025 nM
- EC50 [3]: 2.1 nM

Compound: COC(=O)N[C@H](NC(=O)N1CCC[C@H]1c1nc2ccc(-c3ccc4cc(-c5cnc([C@@H]6CCCN6C(=O)[C@@H](NC(=O)OC)C6CCOCC6)[nH]5)ccc4c3)cc2[nH]1)C1CCOCC1
- EC50 [1]: 0.13 nM
- EC50 [2]: 0.113 nM
- EC50 [3]: 1.1 nM

Compound: COC(=O)N[C@H](NC(=O)N1CCC[C@H]1c1nc2ccc(-c3ccc4cc(-c5cnc([C@@H]6CCCN6C(=O)[C@@H](NC(=O)OC)C6CCCC6)[nH]5)ccc4c3)cc2[nH]1)C1CCCC1
- EC50 [1]: 0.05 nM
- EC50 [2]: 0.003 nM
- EC50 [3]: 2.4 nM

Compound: CC[C@@H](C)[C@H](NC(=O)OC)NC(=O)N1CCC[C@H]1c1nc2ccc(-c3ccc4cc(-c5cnc([C@@H]6CCCN6C(=O)[C@@H](NC(=O)OC)[C@H](C)CC)[nH]5)ccc4c3)cc2[nH]1
- EC50 [1]: 0.6 nM
- EC50 [2]: 0.009 nM
- EC50 [3]: 9.5 nM

Compound: COC(=O)N[C@H](NC(=O)N1CCC[C@H]1c1nc2ccc(-c3ccc4cc(-c5cnc([C@@H]6CCCN6C(=O)[C@H](NC(=O)OC)c6ccccc6)[nH]5)ccc4c3)cc2[nH]1)C(C)C
- EC50 [1]: 0.22 nM
- EC50 [2]: 0.014 nM
- EC50 [3]: 0.03 nM

Compound: CC[C@H](C)[C@H](NC(=O)OC)NC(=O)N1CCC[C@H]1c1nc2ccc(-c3ccc4cc(-c5cnc([C@@H]6CCCN6C(=O)[C@@H](NC(=O)OC)[C@@H](C)CC)[nH]5)ccc4c3)cc2[nH]1
- EC50 [1]: 0.11 nM
- EC50 [2]: 0.015 nM
- EC50 [3]: 2.3 nM

Compound: COC(=O)N[C@H](NC(=O)N1CCC[C@H]1c1nc2ccc(-c3ccc4cc(-c5cnc([C@@H]6CCCN6C(=O)[C@@H](NC(=O)OC)C(C)C)[nH]5)ccc4n3)cc2[nH]1)C(C)C
- EC50 [1]: 0.26 nM
- EC50 [2]: 0.042 nM
- EC50 [3]: 1.1 nM

Compound: COC(=O)N[C@H](NC(=O)N1CCC[C@H]1c1ncc(-c2ccc(-c3ccc(-c4cnc([C@@H]5CCCN5C(=O)[C@@H](NC(=O)OC)C(C)C)[nH]4)cc3)cc2)[nH]1)C(C)C
- EC50 [4]: 0.146 nM
- EC50 [5]: 0.05 nM
- EC50 [6]: 0.009 nM
- EC50 [1]: 0.14 nM
- EC50 [2]: 0.073 nM
- EC50 [3]: 0.67 nM

Compound: COC(=O)N[C@@H](NC(=O)N1CCC[C@H]1c1nc2ccc(-c3ccc4cc(-c5cnc([C@@H]6CCCN6C(=O)[C@@H](NC(=O)OC)C(C)C)[nH]5)ccc4c3)cc2[nH]1)c1ccccc1
- EC50 [1]: 0.11 nM
- EC50 [2]: 0.011 nM
- EC50 [3]: 0.06 nM

Compound: COC(=O)N[C@H](NC(=O)N1CCC[C@H]1c1nc2ccc(-c3ccc4cc(-c5cnc([C@@H]6CCCN6C(=O)[C@@H](NC(=O)OC)[C@@H](C)OC)[nH]5)ccc4c3)cc2[nH]1)C(C)C
- EC50 [1]: 0.1 nM
- EC50 [2]: 0.022 nM
- EC50 [3]: 1.6 nM

Compound: COC(=O)N[C@H](NC(=O)N1CCC[C@H]1c1nc2ccc(-c3ccc4cc(-c5cnc([C@@H]6CCCN6C(=O)[C@@H](NC(=O)OC)C(C)C)[nH]5)ccc4c3)cc2[nH]1)C1CCOCC1
- EC50 [1]: 0.05 nM
- EC50 [2]: 0.023 nM
- EC50 [3]: 0.86 nM
